Assay results from US20210106742A1, “NON-HEMOLYTIC COMPOSITIONS AND METHODS OF USE FOR RECOVERING DISEASE CAUSING TOXIC CONSTITUENTS IN THE BLOOD” (ACTORIUS INNOVATIONS AND RESEARCH CO, priority 2019, published 2021).
Read-outs that look alike come from different tables or passages of the source.

Key:
[1] = tested on: Red Blood Cells from whole human blood; experiment: Red Blood Cells hemolysis assay
Experimental: Red Blood Cells from whole human blood were separated by centrifugation at room temperature and washed in sodium chloride solution two times and resuspended in phosphate buffer saline with pH 7.4. The resuspended red blood cells were incubated with the composition to be evaluated for 30 minutes at 37° C. The samples were centrifuged and the supernatant collected and analyzed for hemolysis using UV spectroscopy. The percentage of hemolysis was estimated against a negative control phosphate buffer saline with pH 7.4 and positive control 0.5% Triton-X100 prepared in phosphate-buffered saline with pH 7.4.
Red Blood Cells from whole human blood (5 milliliter) were separated by centrifugation (500×g, 5 minutes) at room temperature and washed in 150 mM sodium chloride (NaCl) solution two times and resuspended in a total final volume of 5 milliliter with phosphate buffered saline with pH 7.4. The resuspended red blood cells were incubated by mixing with materials listed in Table 1 for 30 minutes at 37° C. The samples were centrifuged (500×g, 5 minutes, room temperature), and supernatants were collected and analyzed for hemolysis using UV spectroscopy at spectra 540 nm. The percentage hemolysis was estimated against a negative control phosphate buffered saline with pH 7.4 and positive control 0.5% Triton-X100.

[2] = tested on: circulating tumor cells (CTC); experiment: Destruction of circulating tumor cells using cisplatin; format: cell-based, human; details: CTCs isolated with composition of example 33; 30 micrograms Cisplatin in 100 microliter PBS pH 7.4, two hours
Experimental: (§1) 1.5 ml blood of a cancer patient was incubated with 300 micrograms of composition of example 33 for 5 minutes. CTCs were isolated using magnetic separation and cells were fixed with absolute ethanol and immuno-stained with cytokeratin (CK-18), leucocyte common antigen (CD-45) and with nuclear-staining probe 4′,6-diamidino-2-phenylindole (DAPI). Captured cells were imaged under fluorescence microscope, wherein 3 CTCs were isolated.
as §1, with “incubated for two hours with 30 micrograms Cisplatin in 100 microliter phosphate buffered saline, pH 7.4, and the composition was” for “cells were”, “(DAPI) and” for “(DAPI). Captured cells were”, “microscope.” for “microscope, wherein 3 CTCs were isolated.”

Compound: CCO[Si](CCCN)(OCC)OCC [(3-Aminopropyl)triethoxysilane]
- Percentage Hemolysis ([1]; sample amount 0.5%, 30 minutes at 37° C.): 0%
- Percentage Hemolysis ([1]; sample amount 10%, 30 minutes at 37° C.): 36%

Compound: N.N.[Cl][Pt][Cl] [Cisplatin]
- CTCs observed after incubation with the drug [2]: No CTCs were observed

Compound: Triton-X100
- Percentage Hemolysis [1]: 100%
